Assay results reported in patent US8450522B2, “Conformationally constrained carboxylic acid derivatives useful for treating metabolic disorders” (Amgen Inc., priority 2008, dated 2013).
“Also recorded” adds a separate entry of the source.

Columns and labels:
[1] = target: T1, GPR40 (Homo sapiens, UniProt O14842); experiment: Cell-based aequorin assay (CHO cells stably transfected with GPR40 and aequorin); set-up: expressed in transfected cells; settings: activation of human GPR40, CHO cells, 0.01% HSA
T1 sequence (O14842 whole entry): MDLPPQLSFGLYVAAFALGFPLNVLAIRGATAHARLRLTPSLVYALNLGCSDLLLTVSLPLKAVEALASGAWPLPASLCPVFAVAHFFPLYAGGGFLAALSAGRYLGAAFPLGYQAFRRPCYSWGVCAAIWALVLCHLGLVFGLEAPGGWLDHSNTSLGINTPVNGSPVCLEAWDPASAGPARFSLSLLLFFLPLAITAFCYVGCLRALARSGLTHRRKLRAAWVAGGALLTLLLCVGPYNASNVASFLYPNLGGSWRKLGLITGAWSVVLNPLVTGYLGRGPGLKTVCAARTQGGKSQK
Description: Briefly, the Aequorin assays were performed on doubly stable CHO cells expressing GPR40 and Aequorin DNA. […] The luminescence was recorded over a period of 20 seconds with a Microlumat luminometer (Berthold).
Cell-based aequorin assays were employed to characterize the modulatory activity of compounds on the GPR40 signaling pathway. In an exemplary assay, CHO cells were stably transfected with both GPR40 and Aequorin (Euroscreen). Cells were detached from the tissue culture dish with 2 mL of trypsin (0.25% (w/v)). Trypsinization was halted with 28 mL of Hanks Buffered Salt Solution containing 20 mM Hepes (H/HBSS) and 0.01% fatty acid-free human serum albumin (HSA). Coelantrazine is added to 1 ug/mL, and the cells were incubated for 2 hours at room temperature. Compounds were dissolved in DMSO for preparation of 10 mM stock solutions. Compounds were diluted in H/HBSS containing 0.01% HSA. Serial dilutions of the test compounds were prepared to determine dose response.
Aequorin luminescence measurements were made using an EG&G Berthold 96-well luminometer, and the response was measured over a 20 second interval after cells and compounds were mixed. The maximum relative light units was plotted to determine dose response. The EC50 (effective concentration to reach 50% maximal response) was determined from the dose response plot.

[2] = target: T1, GPR40; experiment: Competition binding assay on A9 membranes expressing GPR40; set-up: expressed in transfected cells; host or cells: membranes of A9 cells expressing GPR40; settings: 5 nM [3H] labeled Comparative Compound 1, 4 hours at room temperature
Description: Competition binding assays were performed on A9 membranes expressing GPR40.

[3] = target: T1, GPR40; experiment: Inositol phosphate accumulation assay (A9 cell line stably transfected with GPR40); assay type: cell-based; set-up: expressed in transfected cells; settings: human GPR40, A9_GPR40 cells, 1 hour at 37° C.; read-out: IP3 EC50 (inositol phosphate assay data)
Description: An A9 cell line stably transfected with GPR40 (A9_GPR40) was used in IP accumulation assays. A9_GPR40 cells were plated in 96-well plates containing 20,000 cells/well in DMEM containing 10% FBS. After the cells attached to the well surface, the media was replaced with inositol free DMEM containing 10% dialyzed FBS and 1 μCi, mL ^3H-inositol and incubated for 16 hours. Compounds were diluted in HBSS/10 mM LiCl containing a desired amount of HSA and added directly to cells. Following 1 hour incubation at 37° C., the media was replaced with 100 μl of 20 mM formic acid to quench the reaction. 50 μL of the extract was then added to 100 μL of SPA beads, incubated overnight, and measured on a TopCount the following day.

SMILES | EC50 [1] [nM] | displacement of 3H-labeled Comparative Compound 1 [2] | EC50 [3] [nM] | effect on binding of the radioligand (3H-labeled Comparative Compound 1) to the receptor [2]
COc1ccc(F)c(-c2ccc(COc3ccc4c(c3)[C@@H](CC(=O)O)CC4)cc2C(C)(C)C)c1 (single isomer, unassigned) [Example 1, ((1R)-6-(((2-(1,1-Dimethylethyl)-2′-fluoro-5′-(methyloxy)-1,1′-biphenyl-4-yl)methyl)oxy)-2,3-dihydro-1H-inden-1-yl)acetic acid or ((1S)-6-(((2-(1,1-Dimethylethyl)-2′-fluoro-5′-(methyloxy)-1,1′-biphenyl-4-yl)methyl)oxy)-2,3-dihydro-1H-inden-1-yl)acetic acid] | 1000 to 10000 | did not displace |  | enhanced the total binding; also recorded: enhanced the binding of the radioligand
COc1ccc(F)c(-c2ccc(COc3ccc4c(c3)[C@@](C)(CC(=O)O)CC4)cc2[C@@H](OC)C(C)(C)C)c1 (single isomer, unassigned) [Example 36, ((1R)-6-((2′-Fluoro-5′-methoxy-2-((1S)-1-methoxy-2,2-dimethylpropyl)-4-biphenylyl)methoxy)-1-methyl-2,3-dihydro-1H-inden-1-yl)acetic acid or ((1R)-6-((2′-fluoro-5′-methoxy-2-((1R)-1-methoxy-2,2-dimethylpropyl)-4-biphenylyl)methoxy)-1-methyl-2,3-dihydro-1H-inden-1-yl)acetic acid] | 100 to 1000 |  | < 10 | 
CC[C@]1(CC(=O)O)CCc2ccc(OCc3ccc(-c4cc(OC)ccc4F)c([C@H]4CCCC4(C)C)c3)cc21 (single isomer, unassigned) [Example 42] | 100 to 1000 |  | 10 to 100 | 
CC[C@]1(CC(=O)O)CCc2ccc(OCc3ccc(-c4cc(OC)ncc4F)c([C@H]4CCCC4(C)C)c3)cc21 (single isomer, unassigned) [Example 43] | 100 to 1000 |  | 10 to 100 | 
CC[C@]1(CC(=O)O)CCc2ccc(OCc3ccc(-c4cc(OC)ccc4F)c([C@@H](OC)C(C)(C)C)c3)cc21 (single isomer, unassigned) [Example 44] | 100 to 1000 |  | 10 to 100 | 
CC[C@]1(CC(=O)O)CCc2ccc(OCc3ccc(-c4cc(OC)ccc4F)c([C@@H](OC)C(C)(C)C)c3)cc21 (single isomer, unassigned) [Example 45] | 100 to 1000 |  | 100 to 1000 | 
COc1cc(-c2ccc(COc3ccc4c(c3)[C@@H](CC(=O)O)CCC4)cc2[C@H]2CCCC2(C)C)c(F)cn1 (single isomer, unassigned) [Example 46] | 100 to 1000 |  | 10 to 100 | 
COc1cc(-c2ccc(COc3ccc4c(c3)[C@@](C)(CC(=O)O)CCC4)cc2[C@H]2CCCC2(C)C)c(F)cn1 (single isomer, unassigned) [Example 48] | 100 to 1000 |  | 10 to 100 | 
COc1ccc(F)c(-c2ccc(COc3ccc4c(c3)[C@H]([C@@H](C)C(=O)O)CC4)cc2C2=CCCC2(C)C)c1 [Example 14] | 100 to 1000 |  | 10 to 100 | 
COc1ccc(F)c(-c2ccc(COc3ccc4c(c3)[C@H]([C@@H](C)C(=O)O)CC4)cc2[C@H]2CCCC2(C)C)c1 [Example 15] | 100 to 1000 |  | 10 to 100 | 

Continued, in another order:

EC50 [1] [nM] | displacement of 3H-labeled Comparative Compound 1 [2] | EC50 [3] [nM] | SMILES | effect on binding of the radioligand (3H-labeled Comparative Compound 1) to the receptor [2]
100 to 1000 |  | < 10 | COc1cc(-c2ccc(COc3ccc4c(c3)[C@@](C)(CC(=O)O)CC4)cc2[C@@H](OC)C(C)(C)C)c(F)cn1 (single isomer, unassigned) [Example 37, 2-((1R)-6-(4-(5-Fluoro-2-methoxypyridin-4-yl)-3-((S)-1-methoxy-2,2-dimethylpropyl)benzyloxy)-1-methyl-2,3-dihydro-1H-inden-1-yl)acetic acid or 2-((1R)-6-(4-(5-fluoro-2-methoxypyridin-4-yl)-3-(R)-1-methoxy-2,2-dimethylpropyl)benzyloxy)-1-methyl-2,3-dihydro-1H-inden-1-yl)acetic acid] | 
100 to 1000 |  | 10 to 100 | COc1cc(-c2ccc(COc3ccc4c(c3F)[C@@](C)(CC(=O)O)CC4)cc2[C@H]2CCCC2(C)C)c(F)cn1 (single isomer, unassigned) [Example 38, {(R)-6-[3-((S)-2,2-Dimethyl-cyclopentyl)-4-(5-fluoro-2-methoxy-pyridin-4-yl)-benzyloxy]-7-fluoro-1-methyl-indan-1-yl}-acetic acid or stereoisomer thereof] | 
100 to 1000 |  | 10 to 100 | COc1cc(-c2ccc(COc3ccc4c(c3F)[C@@](C)(CC(=O)O)CC4)cc2[C@@H](OC)C(C)(C)C)c(F)cn1 (single isomer, unassigned) [Example 39, {(R)-7-Fluoro-6-[4-(5-fluoro-2-methoxy-pyridin-4-yl)-3-((S)-1-methoxy-2,2-dimethyl-propyl)-benzyloxy]-1-methyl-indan-1-yl}-acetic acid or stereoisomer thereof] | 
100 to 1000 |  | 100 to 1000 | COc1cc(-c2ccc(COc3ccc4c(c3F)C(C)(CC(=O)O)CC4)cc2C2CCCC2(C)C)c(F)cn1 [Example 40, {(S)-6-[3-((S)-2,2-Dimethyl-cyclopentyl)-4-(5-fluoro-2-methoxy-pyridin-4-yl)-benzyloxy]-7-fluoro-1-methyl-indan-1-yl}-acetic acid or stereoisomer thereof] | 
